Here are results for two compounds from patent publication US5688773A, “Method of selectively destroying neoplastic cells” (priority 1994, dated 1997).

Series [1] deals with C450-8 (C6-derived clone, cytochrome P450 2B1). The series is described as follows: Growth in the presence of 500 μM cyclophosphamide. As to conditions: 500 μM CPA, four days.
Series [2] deals with CNEO-1 cells. The series is described as follows: Cyclophosphamide dose-response assay. The format is cell-based. The note with it: Rattus norvegicus, C6 glioma; up to 1 mM CPA; read-out: cells that survived incubation.
Procedure: (§4) Two days later CPA was added to final concentrations of 0-100 μM. Five days after plating, the monolayers were rinsed twice with Hank's buffered saline (GIBCO) to remove dead cells. Monolayers were dispersed using trypsin-EDTA (GIBCO), and cell numbers were determined using a Coulter counter (Coulter Electronics Inc.).
Series [3] concerns C6 cells. Nature of the series: Cyclophosphamide dose-response assay. The series is classed as cell-based. As to conditions: Rattus norvegicus, up to 1 mM CPA, read-out: cells that survived incubation.
Procedure: as §4
In series [4] the test system is C6 tumors. Nature of the series: Cyclophosphamide sensitivity of subcutaneous tumors. The series is classed as in vivo, nude mice. As to conditions: day 17. The procedure:
(§1) Animal Studies: For animal injections, cultured cells in the proliferative stage were replated 24 hours before harvesting, then trypsinized, centrifuged at low speed, washed once by resuspension in Hank's buffered saline, centrifuged, and then resuspended in DMEM without serum at a density of 5×10^6 cells/mL. For subcutaneous injections, 10^6 C450-8 or C6 cells in 200 μl were injected into the flanks of athymic mice (NCY/Sed, nu/nu; MGH breeding colony; five animals per group). After 3 days, when tumors had reached a volume of about 0.01 cm^3 (as measured by external calipers) (Lee et al., Neurosurgery 26:598-605 (1990) and again at 14 days, 100 μl injections of either 20 mg CPA (Sigma) per mL saline or 100 μl saline were performed directly into the tumor mass. Animals were sacrificed at 17 days by euthanasia.

Series [5] deals with C450-8 tumors. Described as above. As to conditions: day 17. The format is in vivo, nude mice. The procedure: as §1
Series [6] concerns 9L-ZP cells. The series is described as follows: Drug sensitivity of cultured 9L cells with or without metyrapone. The note with it: Rattus norvegicus, 120 h.
Series [7] deals with C6 cells exposed to CM from C6-P450. Nature of the series: C6 colony formation after conditioned medium from drug-exposed cells. As to conditions: for Colony numbers: colonies six days later.
For series [8], the system named is control tumor MCF-7 Z3. The series is described as follows: MCF-7 tumors in nude mouse model. The format is in vivo, nude mice. As to conditions: 100 mg/kg ×2 intraperitoneal, day 0 and day 2. The protocol:
(§2) MCF-7 cells or stable MCF-7 cell transfectants expressing cytochrome P450 2B1 or E. coli β-galactosidase (lacZ) were grown in cell culture. Cells in the exponential growth phase were harvested and then injected subcutaneously (1×10^7 cells in 0.2 mL) in the flanks of nude mice. A single 17β-estradiol pellet (1.7 mg hormone/60-day release pellet, Innovative Research, Toledo, Ohio) was implanted one day before tumor inoculation. At one month after tumor inoculation, the size of each tumor was measured using a vernier caliper.
(§3) Nude mice were then treated with cyclophosphamide given at 100 mg/kg body weight×2, by intraperitoneal injection given on day 0 and again on day 2. Tumor size measurements were then again determined using a vernier caliper, and data are expressed relative to tumor sizes as of day 0, the day of initial cyclophosphamide (CPA) injection.

Series [9] concerns cytochrome P450 2B1-expressing MCF-7 cells. The series is described as follows: MCF-7 tumors in nude mouse model. The series is classed as in vivo, nude mice. The note with it: 100 mg/kg ×2 intraperitoneal, day 0 and day 2. The procedure: as §2, §3
Series [10] has as its system parental C6 cells. The note with it: subcutaneous, nude mice; cited from earlier work.
The subject of series [11] is C6BAG cells co-cultured with C6VIKWT cells. Nature of the series: Simultaneous co-culture, ganciclovir sensitivity of recipient colonies. The series is classed as cell-based, rat. The note with it: 100 μM ganciclovir; donor:recipient ratios of 0.1 and 1. The protocol:
For simultaneous co-culture experiments, 10^3 recipient cells, C6BAG or C6BBAG were plated together with 10^5 C6VIK or C6VIKWT donor cells, in duplicate. Controls were C6BAG or C6BBAG cells co-plated with C6BU1 cells at a similar ratio (1:100). After seven days, ganciclovir was added at varying concentrations (0 to 300 μM) and culture was processed as above. To assess the effects of the ratio of the donor cells to recipient cells, simultaneous co-culture experiments were also done varying the ratio of the donor cell, C6VIKWT, to the recipient cell, C6BAG, from 0.1 to 100.

Series [12] concerns C6VIK cells. The series is described as follows: Ganciclovir sensitivity in vivo, subrenal capsule tumors. The note with it: 20 mg/kg intraperitoneally daily; reassessed over a 16-day period; two animals. On the set-up: species or system rat. From the text: In this study, rat C6 glioma cells were used as a model primary brain tumor type. C6 cells rapidly form a non-encapsulated, non-metastatic tumor after injection into the adult rat CNS. Further, derivative cell lines are available, which lack endogenous TK activity (C6-BUI) or bear the lacZ gene (C6-BAG), which are useful experimentally. A retroviral vector was generated in which the HSV-1-TK gene is regulated by the strong, constitutive retrovirus LTR promoter. C6-BUI cells were infected with this vector and selected for TK activity by growth in HAT medium. Parental and infected cells were tested for their dose-dependent sensitivity to ganciclovir in culture and in vivo following inoculation into the rat subrenal capsule.
Ganciclovir Sensitivity in vivo: Nine rats were implanted in the subrenal capsule with C6VIK cells. Four survived the procedure for further study. Tumors were measured 5 days after implantation. Two animals were treated with ganciclovir (20 mg/kg intraperitoneally daily) and two with saline daily. Tumor size was reassessed over a 16-day period. The two control tumors grew four- to twelve-fold.
This model overcomes the problem of not being able to directly observe the size of an intracerebral tumor implant and the concerns about delivery of ganciclovir through an intact blood-brain barrier.

The mark [13] stands for this setting: 2 mg CPA intratumorally day 3 and 14.

The structures appear in SMILES notation.

On to `O=P1(N(CCCl)CCCl)NCCCO1` (centres unmarked) [cyclophosphamide], for which the Cell destruction entry in [1] is on record as “destroyed completely”. Also, the viability at 1000 µM in [2] and in [3] was at least 80% each time. Also, the results for the Tumor volume in series [4] (setting [13]) and in series [5] (setting [13]) were 0.093±0.035 cm^3 and 0.016±0.003 cm^3, respectively. For the same compound, the “ratio of the mean volumes of CPA-treated to saline-treated tumors” value in [4] is 0.124; in [5], 0.035. The compound also registered a cytotoxicity at 1000 µM in series [6] above 90%. Besides, the Colony numbers in [7] (CM after 0.5 h of 0.5 mM CPA) is listed as 263 ± 6; in series [7] (CM after 1.5 h of 0.5 mM CPA), 267 ± 9; in series [7] (CM after 3 h of 0.5 mM CPA), 144 ± 19; in [7] (CM after 6 h of 0.5 mM CPA), 94 ± 8; in [7] (CM after 10 h of 0.5 mM CPA) it was 12 ± 0.3; in series [7] (CM after 24 h of 0.5 mM CPA), 0. Moreover, the Colony numbers in [7] (CM after 32 h of 0.5 mM CPA), in series [7] (CM after 48 h of 0.5 mM CPA), in series [7] (CM after 72 h of 0.5 mM CPA) and in series [7] (CM after 96 h of 0.5 mM CPA) was 0 each time. Besides, the “Inhibition of C6 cell colony formation” value in series [7] (CM after exposure to CPA for 24 hours) was “Complete inhibition”. Also, the “Toxicity of conditioned medium to C6 cell growth / colony formation” value in series [7] (CM from treated C6-P450 cells, nine days) is “highly toxic”. The “Secretion effect, C6 colony number” value in series [7] (Table V panel C, CM from treated C6-P450 cultures) worked out at 0. In [8], the “Tumor cyclophosphamide sensitivity in vivo” value is “only a moderate cyclophosphamide sensitivity”. The “Tumor cell kill in vivo” value in series [9] is on record as “preferentially killed”.
Take `Nc1nc(O)c2ncn(COC(CO)CO)c2n1` [ganciclovir]: in series [10], the Tumor growth entry is recorded as “had no effect on tumor growth”. Besides, in [11], the “ganciclovir sensitivity compared to C6BAG cells alone” value is “no significant difference”. Moreover, the “Tumor size after treatment” value in series [12] was “smaller after the treatment than before”.
